Source: PMC4504433 (ACS Chemical Biology, 2014)

Test system: H3K79me2 in A431 cells
Test: High content imaging assay of H3K79me2
Conditions: 4 days

Compound: Nc1ncnc2c1ncn2[C@@H]1O[C@H](CSCC[C@H](N)C(=O)O)[C@@H](O)[C@H]1O [SAH]
- reduction of H3K79 methylation, result in words: ineffective
